These results are taken from ChEMBL document CHEMBL4002618, “Anticomplement triterpenoids from the roots of Ilex asprella” (2017).

Test [1] deals with Erythrocyte. The test is described as follows: Anticomplement activity in sheep erythrocytes assessed as inhibition of hemolysis by classical pathway by measuring hemolysis after 30 mins of compound treatment in normal human serum with C4-depleted sera relative to control. It counts as functional, Ovis aries. More on the design: scale not given: the % may be the effect or the level left.

Test [2] deals with Erythrocyte. The test is described as follows: Anticomplement activity in sheep erythrocytes assessed as concentration required for 50% hemolytic inhibition by classic pathway preincubated for 10 mins with guinea pig serum followed by erythrocyte addition measured after 30 mins by spectrophotometer. It counts as functional, Ovis aries.
In test [3] the test system is Erythrocyte. Nature of the test: Anticomplement activity in sheep erythrocytes assessed as inhibition of hemolysis by classical pathway after 30 mins of compound treatment in normal human serum with C1q-depleted sera. Format: functional, cell-based. The settings on record: Ovis aries.
Test [4] relates to Erythrocyte. Nature of the test: Anticomplement activity in sheep erythrocytes assessed as inhibition of hemolysis by classical pathway by measuring hemolysis after 30 mins of compound treatment in normal human serum with C9-depleted sera relative to control. It counts as functional, Ovis aries. More on the design: scale not given: the % may be the effect or the level left.
In test [5] the test system is Erythrocyte. Nature of the test: Anticomplement activity in sheep erythrocytes assessed as inhibition of hemolysis by classical pathway after 30 mins of compound treatment in normal human serum with C5-depleted sera. The settings on record: Ovis aries. Format: functional, cell-based.
The test system of test [6] is Erythrocyte. The test is described as follows: Anticomplement activity in New Zealand White rabbit erythrocytes assessed as concentration required for 50% hemolytic inhibition by alternative pathway preincubated for 10 mins with normal human serum followed by erythrocyte addition measured after 30 mins by spectrophotometer. Format: functional, Oryctolagus cuniculus.

The test system of test [7] is Erythrocyte. Nature of the test: Anticomplement activity in sheep erythrocytes assessed as inhibition of hemolysis by classical pathway by measuring hemolysis after 30 mins of compound treatment in normal human serum with C3-depleted sera relative to control. Format: functional, Ovis aries. Also on record: scale not given: the % may be the effect or the level left.

The test system of test [8] is Erythrocyte. Nature of the test: Anticomplement activity in sheep erythrocytes assessed as inhibition of hemolysis by classical pathway after 30 mins of compound treatment in normal human serum with C2-depleted sera. The settings on record: Ovis aries. It counts as functional, cell-based.
For test [9], the system named is Erythrocyte. Nature of the test: Anticomplement activity in sheep erythrocytes assessed as inhibition of hemolysis by classical pathway after 30 mins of compound treatment in normal human serum with C9-depleted sera. The note with it: Ovis aries. Format: functional, cell-based.
In test [10] the test system is Erythrocyte. Nature of the test: Anticomplement activity in sheep erythrocytes assessed as inhibition of hemolysis by classical pathway after 30 mins of compound treatment in normal human serum with C4-depleted sera. It counts as functional, cell-based. The settings on record: Ovis aries.
The subject of test [11] is Erythrocyte. Nature of the test: Anticomplement activity in sheep erythrocytes assessed as inhibition of hemolysis by classical pathway after 30 mins of compound treatment in normal human serum with C3-depleted sera. Format: functional, cell-based. The settings on record: Ovis aries.

Each structure is given as a SMILES string. The source made the active and inactive calls. The calls are words filed in the database; no cut-off is given here. A value given as a limit tells only on which side of the number the result lay.

Consider `COC(=O)[C@]12CCC(C)(C)C[C@H]1C1=CC[C@@H]3[C@@]4(C)CC[C@H](O)C(C)(C)[C@@H]4CC[C@@]3(C)[C@]1(COC(=O)/C=C/c1ccc(O)cc1)CC2`, for which the Activity in test [1] was <18.3%; in test [2] it was 0.094 mg/mL; in test [4] it was <18.3%; in test [6], 0.444 mg/mL; in test [7] it was <18.3%. Moreover, the outcome in [3], in test [5] and in [8] was inactive.
Take `COC(=O)[C@]12CC[C@@H](C)[C@H](C)[C@H]1C1=CC[C@@H]3[C@@]4(C)CC[C@H](O)C(C)(C)[C@@H]4CC[C@@]3(C)[C@]1(COC(=O)/C=C/c1ccc(O)c(O)c1)CC2`: the Activity is <18.3% in test [1]; 0.058 mg/mL in test [2]; <18.3% in test [4]; 0.08 mg/mL in test [6]; <18.3% in test [7]. Further, the outcome in test [3], in test [5] and in [8] was inactive.
Turning to `C=C1[C@@H](O)[C@H](O)C[C@]2(C)[C@H]3CC=C4[C@@H]5CC(C)(C)CC[C@]5(C(=O)O)CC[C@@]4(C)[C@]3(C)CC[C@@H]12`, the Activity in test [2] turned out to be 0.09 mg/mL; in [6] it was 0.308 mg/mL. Further, the outcome in [3], in test [9] and in [8] was Active.
On to `CC1(C)CC[C@]2(C(=O)O)CC[C@]3(COC(=O)/C=C/c4ccc(O)cc4)C(=CC[C@@H]4[C@@]5(C)CC[C@H](OC(=O)/C=C/c6ccc(O)cc6)C(C)(C)[C@@H]5CC[C@]43C)[C@@H]2C1`, for which the results for the Activity in test [2] and in [6] were 0.072 mg/mL and 0.159 mg/mL, respectively. The outcome in [10], in test [3], in [5] and in test [11] was Active. Besides, the result in test [9] and in [8] was inactive.
